According to paper PMC5783306 (Nature, 2017):

T1: TAX-4 (Caenorhabditis elegans, UniProt Q03611)
T1 sequence (Q03611 1-733): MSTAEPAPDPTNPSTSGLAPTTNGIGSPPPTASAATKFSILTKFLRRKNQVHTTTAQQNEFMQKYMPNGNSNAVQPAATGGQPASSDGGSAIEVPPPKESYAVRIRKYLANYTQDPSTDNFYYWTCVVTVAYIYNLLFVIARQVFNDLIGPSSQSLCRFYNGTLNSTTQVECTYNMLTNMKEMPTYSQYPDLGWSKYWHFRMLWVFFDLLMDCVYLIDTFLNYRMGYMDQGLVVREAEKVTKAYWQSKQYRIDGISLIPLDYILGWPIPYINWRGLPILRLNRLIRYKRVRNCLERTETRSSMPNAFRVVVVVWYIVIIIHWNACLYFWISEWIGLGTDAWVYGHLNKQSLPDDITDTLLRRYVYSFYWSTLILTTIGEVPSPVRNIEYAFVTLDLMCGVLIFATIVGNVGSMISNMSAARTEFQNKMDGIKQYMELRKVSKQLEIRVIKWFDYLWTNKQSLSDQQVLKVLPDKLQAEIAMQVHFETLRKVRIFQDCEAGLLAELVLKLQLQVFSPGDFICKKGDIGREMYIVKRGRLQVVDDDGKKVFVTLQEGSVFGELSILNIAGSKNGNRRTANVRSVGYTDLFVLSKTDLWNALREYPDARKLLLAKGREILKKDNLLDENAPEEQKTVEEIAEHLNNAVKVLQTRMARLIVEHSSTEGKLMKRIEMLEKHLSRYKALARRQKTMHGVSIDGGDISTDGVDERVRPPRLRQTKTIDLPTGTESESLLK


Key:
[1] = molecular target: T1, TAX-4; experiment: cryo-EM structure at […] Å of cGMP-bound channel; format: cell-based
[2] = molecular target: the molecule itself; experiment: cryo-EM structure

EC50 [1]	Molecule	stoichiometry N [2]
160 nM	Nc1nc2c(ncn2[C@@H]2O[C@@H]3COP(=O)(O)O[C@H]3[C@H]2O)c(=O)[nH]1 [cGMP]	
	TAX-4 (cyclic nucleotide-gated channel CNGA subunit from C. elegans), cGMP-bound (natural protein, UniProt Q03611 1-733, looked up) MSTAEPAPDPTNPSTSGLAPTTNGIGSPPPTASAATKFSILTKFLRRKNQVHTTTAQQNEFMQKYMPNGNSNAVQPAATGGQPASSDGGSAIEVPPPKESYAVRIRKYLANYTQDPSTDNFYYWTCVVTVAYIYNLLFVIARQVFNDLIGPSSQSLCRFYNGTLNSTTQVECTYNMLTNMKEMPTYSQYPDLGWSKYWHFRMLWVFFDLLMDCVYLIDTFLNYRMGYMDQGLVVREAEKVTKAYWQSKQYRIDGISLIPLDYILGWPIPYINWRGLPILRLNRLIRYKRVRNCLERTETRSSMPNAFRVVVVVWYIVIIIHWNACLYFWISEWIGLGTDAWVYGHLNKQSLPDDITDTLLRRYVYSFYWSTLILTTIGEVPSPVRNIEYAFVTLDLMCGVLIFATIVGNVGSMISNMSAARTEFQNKMDGIKQYMELRKVSKQLEIRVIKWFDYLWTNKQSLSDQQVLKVLPDKLQAEIAMQVHFETLRKVRIFQDCEAGLLAELVLKLQLQVFSPGDFICKKGDIGREMYIVKRGRLQVVDDDGKKVFVTLQEGSVFGELSILNIAGSKNGNRRTANVRSVGYTDLFVLSKTDLWNALREYPDARKLLLAKGREILKKDNLLDENAPEEQKTVEEIAEHLNNAVKVLQTRMARLIVEHSSTEGKLMKRIEMLEKHLSRYKALARRQKTMHGVSIDGGDISTDGVDERVRPPRLRQTKTIDLPTGTESESLLK	4
